biological target: GPR17 (Homo sapiens, UniProt Q13304); assay: Calcium mobilization functional assay (GPR17 Ca2+ assay); type: cell-based; parameters: host or cells: Flp-In T-REx CHO; settings: CHO hGPR17 cells, inhibition of 50 nM MDL29,951, Calcium 5 dye, FLIPR; read-out: Ca2+ assay pIC50 (converted)
Experimental: Flp-In T-REx CHO cells stably expressing human GPR17 receptor (CHO hGPR17) from Evi Kostenis' lab (Bonn University, Germany) were cultured at 37° C. in a humidified atmosphere of 5% CO2. Cells were grown in DMEM with Nutrient Mixture F-12 supplemented with hygromycin B (500 μg/mL) and blasticidin (30 μg/mL). Expression from the Flp-In locus was induced by treatment with doxycycline (1 μg/mL) for 16-20 h prior assays.
GPR17 is a G-protein coupled receptor. GPR17 activation triggers Gq-type G-protein signaling resulting in endoplasmic reticulum calcium (Ca^2+) stores release in cytosol which can be measured using Calcium 5 dye, a fluorescent indicator dye of cytosolic Ca^2+ levels. All Examples were tested in GPR17 Ca^2+ assay to determine (screen) their GPR17 modulating activity.
CHO hGPR17 were defrosted and seeded at a density of 20,000 cells per well into black 384-well plates with clear bottom. Cells were incubated overnight at 37° C. in a humidified atmosphere of 5% CO2. Sixteen to twenty hours after seeding, CHO hGPR17 were loaded for 60 min with Calcium 5 dye, a cytosolic Ca^2+ indicator fluorescent dye, according to manufacturer's instructions. Fluorescent signal relative to cytosolic Ca^2+ concentration was recorded over time at room temperature in FLIPR Tetra reader. […] Then, 50 nM MDL29,951, a GPR17 agonist, was added to the cells. Inhibitory effects of varying concentrations test compounds were measured and resulting plC50s were determined. […] Analysis and curve fitting were performed in ActivityBase XE using XLfit 4-parameter logistic equation y=A+((B−A)/(1+((C/x)^D))) where A, B, C and D stand for minimum y, maximum y, IC50 and slope, respectively.
The activities of the Example compounds tested are depicted in the table in Section B2B below. The activity ranges A, B and C refer to plC50 values in the Ca^2+ assay as follows: “A”: plC50<7.5, “B”: plC50 7.5<x≤ 8.5, “C”: plC50>8.5

Sequence of GPR17 (Q13304 whole entry): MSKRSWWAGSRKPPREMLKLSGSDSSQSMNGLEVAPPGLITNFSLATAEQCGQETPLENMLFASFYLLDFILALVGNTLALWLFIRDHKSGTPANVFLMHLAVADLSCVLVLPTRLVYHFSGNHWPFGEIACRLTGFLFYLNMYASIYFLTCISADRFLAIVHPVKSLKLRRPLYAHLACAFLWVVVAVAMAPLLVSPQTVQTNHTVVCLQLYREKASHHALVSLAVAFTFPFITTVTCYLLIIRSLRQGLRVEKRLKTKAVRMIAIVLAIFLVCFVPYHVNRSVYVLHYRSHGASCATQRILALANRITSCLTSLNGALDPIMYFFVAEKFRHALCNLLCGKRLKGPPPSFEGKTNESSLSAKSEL

Row | Structure (SMILES) | IC50
1 | O=S(=O)(Nc1cccc2nsnc12)c1c[nH]c2cc(OCc3ccccc3)ccc12 [Compound I-156, N-(2,1,3-benzothiadiazol-4-yl)-6-(benzyloxy)-1H-indole-3-sulfonamide] | > 31.6 nM
2 | O=S(=O)(Nc1cccc2nsnc12)c1c[nH]c2ccccc12 [Compound I-106, N-(2,1,3-benzothiadiazol-4-yl)-1H-indole-3-sulfonamide] | > 31.6 nM
3 | CS(=O)(=O)c1ccc2c(S(=O)(=O)Nc3cccc4c3OCO4)c[nH]c2c1 [Compound I-33, N-(1,3-benzodioxol-4-yl)-6-(methylsulfonyl)-1H-indole-3-sulfonamide] | > 31.6 nM
4 | N#Cc1cc(F)c(NS(=O)(=O)c2c[nH]c3c(Cl)cccc23)cc1F [Compound I-117, 7-chloro-N-(4-cyano-2,5-difluorophenyl)-1H-indole-3-sulfonamide] | > 31.6 nM
5 | O=S(=O)(Nc1ccc2n[se]nc2c1)c1c[nH]c2cc(Cl)ccc12 [Compound I-161, N-(2,1,3-benzoselenadiazol-5-yl)-6-chloro-1H-indole-3-sulfonamide] | 3.16 to 31.6 nM
6 | O=S(=O)(Nc1c(F)ccc2nsnc12)c1c[nH]c2cc(Cl)ccc12 [Compound I-131, 6-chloro-N-(5-fluoro-2,1,3-benzothiadiazol-4-yl)-1H-indole-3-sulfonamide] | > 31.6 nM
7 | O=S(=O)(Nc1cccc(F)c1Cl)c1c[nH]c2nc(Cl)ccc12 [Compound I-87, 6-chloro-N-(2-chloro-3-fluorophenyl)-1H-pyrrolo[2,3-b]pyridine-3-sulfonamide] | > 31.6 nM
8 | O=S(=O)(Nc1cc(F)cc(F)c1)c1c[nH]c2nc(Br)ccc12 [Compound I-89, 6-bromo-N-(3,5-difluorophenyl)-1H-pyrrolo[2,3-b]pyridine-3-sulfonamide] | > 31.6 nM
9 | O=S(=O)(Nc1cccc2c1OC(F)(F)O2)c1c[nH]c2nc(Br)ccc12 [Compound I-102, 6-bromo-N-(2,2-difluoro-1,3-benzodioxol-4-yl)-1H-pyrrolo[2,3-b]pyridine-3-sulfonamide] | 3.16 to 31.6 nM
10 | COc1nc(NS(=O)(=O)c2c[nH]c3cc(Br)ccc23)c(F)cc1CC#N [Compound I-320, 6-bromo-N-[5-(cyanomethyl)-3-fluoro-6-methoxypyridin-2-yl]-1H-indole-3-sulfonamide] | < 3.16 nM
11 | COC(=O)c1ccc(NS(=O)(=O)c2c[nH]c3cc(Cl)ccc23)cc1 [Compound I-6, methyl 4-{[(6-chloro-1H-indol-3-yl)sulfonyl]amino}benzoate] | > 31.6 nM
12 | N#Cc1cc(F)c(NS(=O)(=O)c2c[nH]c3cc(F)cc(F)c23)cc1F [Compound I-164, N-(4-cyano-2,5-difluorophenyl)-4,6-difluoro-1H-indole-3-sulfonamide] | > 31.6 nM
13 | COc1cccc(NS(=O)(=O)c2c[nH]c3cc(Cl)ccc23)n1 [Compound I-58, 6-chloro-N-(6-methoxypyridin-2-yl)-1H-indole-3-sulfonamide] | > 31.6 nM
14 | O=S(=O)(Nc1cccc2nsnc12)c1c[nH]c2c(Br)cccc12 [Compound I-111, N-(2,1,3-benzothiadiazol-4-yl)-7-bromo-1H-indole-3-sulfonamide] | > 31.6 nM
15 | N#Cc1ccc(NS(=O)(=O)c2c[nH]c3cc4c(cc23)OCO4)cc1 [Compound I-19, N-(4-cyanophenyl)-5H-[1,3]dioxolo[4,5-f]indole-7-sulfonamide] | > 31.6 nM
16 | O=S(=O)(Nc1cccc2c1OCO2)c1c[nH]c2cc(F)ccc12 [Compound I-31, N-(1,3-benzodioxol-4-yl)-6-fluoro-1H-indole-3-sulfonamide] | > 31.6 nM
17 | COCc1ccc(NS(=O)(=O)c2c[nH]c3cc(Cl)ccc23)cc1 [Compound I-122, 6-chloro-N-(4-(methoxymethyl)phenyl)-1H-indole-3-sulfonamide] | > 31.6 nM
18 | N#Cc1cc(F)c(NS(=O)(=O)c2c[nH]c3nc(Cl)ccc23)cc1F [Compound I-176, 6-chloro-N-(4-cyano-2,5-difluorophenyl)-1H-pyrrolo[2,3-b]pyridine-3-sulfonamide] | 3.16 to 31.6 nM
19 | O=S(=O)(Nc1cc(F)c(F)cc1F)c1c[nH]c2cc(C(F)(F)F)ccc12 [Compound I-54, 6-(trifluoromethyl)-N-(2,4,5-trifluorophenyl)-1H-indole-3-sulfonamide] | > 31.6 nM
20 | Cc1cc2c(S(=O)(=O)Nc3cccc4c3OCO4)c[nH]c2cc1Br [Compound I-35, N-(1,3-benzodioxol-4-yl)-6-bromo-5-methyl-1H-indole-3-sulfonamide] | > 31.6 nM
21 | O=S(=O)(Nc1cc(F)c(F)cc1F)c1c[nH]c2cc3c(cc12)OCO3 [Compound I-46, N-(2,4,5-trifluorophenyl)-5H-[1,3]dioxolo[4,5-f]indole-7-sulfonamide] | > 31.6 nM

The remaining lines, values ahead:

Row | IC50 | Structure (SMILES)
22 | > 31.6 nM | O=S(=O)(Nc1cccc(F)c1Cl)c1c[nH]c2cc(Cl)ccc12 [Compound I-23, 6-chloro-N-(2-chloro-3-fluorophenyl)-1H-indole-3-sulfonamide]
23 | 3.16 to 31.6 nM | N#Cc1cc(F)c(NS(=O)(=O)c2c[nH]c3ccccc23)cc1F [Compound I-145, N-(4-cyano-2,5-difluorophenyl)-1H-indole-3-sulfonamide]
24 | 3.16 to 31.6 nM | Cc1ccc2c(S(=O)(=O)Nc3ccc(C#N)cc3)c[nH]c2c1 [Compound I-20, N-(4-cyanophenyl)-6-methyl-1H-indole-3-sulfonamide]
25 | > 31.6 nM | N#Cc1ccc(NS(=O)(=O)c2c[nH]c3c(Cl)cccc23)cc1 [Compound I-16, 7-chloro-N-(4-cyanophenyl)-1H-indole-3-sulfonamide]
26 | > 31.6 nM | N#Cc1ccc(NS(=O)(=O)c2c[nH]c3cc(-c4ccncc4)ccc23)c(F)c1 [Compound I-231, N-(4-cyano-2-fluorophenyl)-6-(pyridin-4-yl)-1H-indole-3-sulfonamide]
27 | > 31.6 nM | O=S(=O)(Nc1ccccc1F)c1c[nH]c2cc(Cl)ccc12 [Compound I-11, 6-chloro-N-(2-fluorophenyl)-1H-indole-3-sulfonamide]
28 | > 31.6 nM | O=S(=O)(Nc1cc(F)ccc1Br)c1c[nH]c2cc(Cl)ccc12 [Compound I-38, N-(2-bromo-5-fluorophenyl)-6-chloro-1H-indole-3-sulfonamide]
29 | > 31.6 nM | N#Cc1ccc(NS(=O)(=O)c2c[nH]c3cc(F)ccc23)cc1 [Compound I-171, N-(4-cyanophenyl)-6-fluoro-1H-indole-3-sulfonamide]
30 | < 3.16 nM | N#Cc1ccc(NS(=O)(=O)c2c[nH]c3cc(C(F)(F)F)ccc23)cc1 [Compound I-190, N-(4-cyanophenyl)-6-(trifluoromethyl)-1H-indole-3-sulfonamide]
31 | 3.16 to 31.6 nM | O=S(=O)(Nc1cc2nsnc2cc1F)c1c[nH]c2cc(F)ccc12 [Compound I-172, 6-fluoro-N-(6-fluoro-2,1,3-benzothiadiazol-5-yl)-1H-indole-3-sulfonamide]
32 | < 3.16 nM | N#Cc1cc(F)c(NS(=O)(=O)c2c[nH]c3cc(F)ccc23)cc1F [Compound I-165, N-(4-cyano-2,5-difluorophenyl)-6-fluoro-1H-indole-3-sulfonamide]
33 | > 31.6 nM | N#Cc1ccc(NS(=O)(=O)c2c[nH]c3cc(Cl)ccc23)nc1 [Compound I-61, 6-chloro-N-(5-cyanopyridin-2-yl)-1H-indole-3-sulfonamide]
34 | > 31.6 nM | Cc1noc(C)c1-c1ccc2c(S(=O)(=O)Nc3ccc(C#N)cc3F)c[nH]c2c1 [Compound I-234, N-(4-cyano-2-fluorophenyl)-6-(3,5-dimethyl-1,2-oxazol-4-yl)-1H-indole-3-sulfonamide]
35 | > 31.6 nM | O=S(=O)(Nc1ccccc1Cl)c1c[nH]c2cc(Cl)ccc12 [Compound I-26, 6-chloro-N-(2-chlorophenyl)-1H-indole-3-sulfonamide]
36 | > 31.6 nM | N#Cc1ccc(NS(=O)(=O)c2c[nH]c3cc(Cl)ccc23)c2nsnc12 [Compound I-163, 6-chloro-N-(7-cyano-2,1,3-benzothiadiazol-4-yl)-1H-indole-3-sulfonamide]
37 | > 31.6 nM | O=S(=O)(Nc1ccc(I)cc1F)c1c[nH]c2c1ccc1ccccc12 [Compound I-47, N-(2-fluoro-4-iodophenyl)-1H-benzo[g]indole-3-sulfonamide]
38 | > 31.6 nM | O=S(=O)(Nc1ccc(F)cc1F)c1c[nH]c2nc(Cl)ccc12 [Compound I-86, 6-chloro-N-(2,4-difluorophenyl)-1H-pyrrolo[2,3-b]pyridine-3-sulfonamide]
39 | > 31.6 nM | C#Cc1ccc(NS(=O)(=O)c2c[nH]c3cc(Cl)ccc23)cc1 [Compound I-22, 6-chloro-N-(4-ethynylphenyl)-1H-indole-3-sulfonamide]
40 | > 31.6 nM | O=S(=O)(Nc1ccc(Cl)cc1F)c1c[nH]c2cc(C(F)(F)F)ccc12 [Compound I-53, N-(4-chloro-2-fluorophenyl)-6-(trifluoromethyl)-1H-indole-3-sulfonamide]

From patent publication US12071404B2, “Aza (indole)-, benzothiophene-, and benzofuran-3-sulfonamides” (UCB Pharma GmbH, priority 2016, dated 2024)
